We go through 2 molecules from patent US20190112580A1, “METHODS FOR TREATING CO[…] AND RELATED CULTURED CELLS” (priority 2017, published 2019).

As usually defined, the IC50 is the point on the concentration scale where inhibition reaches its midpoint.

Molecules are shown by their SMILES.

Series [1] concerns satellite cell-derived myoblasts. How it is done: Myoblasts were grown in the high-serum medium until reaching a 60-70% confluence by visual inspection in 12-well plate culture dishes.
In a first set of wells, the myoblast cell preparations were placed in a high-serum medium until about 70% confluence was reached. […] These myoblast cell preparations were then switched to a low-serum medium (as described in Example 1) for four days to promote fusion and myotube formation.
In a second set of wells, the myoblast cell preparations were placed in a high-serum medium until about 70% confluence was reached. Then, the myoblast cell preparations were exposed to 5 μM of 5-azacytidine in the high-serum medium for 6 hours. These myoblast cell preparations were finally switched to a low-serum medium (as described in Example 1) for 4 days to promote fusion and myotube formation.
In a third set of wells, the myoblast cell preparations were placed in a high-serum medium until about 70% confluence was reached. These myoblast cell preparations were then exposed to 5 μM of 5-azacytidine in the high-serum medium for 24 hours. These myoblast cell preparations were finally switched to a low-serum medium (as described in Example 1) for 4 days to promote fusion and myotube formation.
In a fourth set of wells, the myoblast cell preparations were placed in a high-serum medium until about 70% confluence was reached.
In a fifth set of wells, the myoblast cell preparations were placed in a high-serum medium until about 70% confluence was reached. […] These same myoblast cell preparations were finally switched to a low-serum medium for 4 days to promote fusion and myotube formation.
FIG. 5, from left to right, depicts 5 columns with 5 different assays on myotube preparations differentiated from the myoblast cell preparations in the 12-well dishes. […] The second column reflects myotubes differentiated from a myoblast cell preparation from the second set of wells, which was exposed to 5 μM of 5-AZA in high serum medium for 6 hours. The third column reflects myotubes differentiated from a myoblast cell preparation from the third set of wells, which was exposed to 5 μM of 5-AZA in high serum medium for 24 hours. […] The immunostainings on the top row of FIG. 5 identifies lipid membranes (green color, WGA), nuclei (blue color, DAPI) and myotubes (red color, ACTA2). The gray-scale panels (middle row) show staining for nuclei only (DAPI). The gray-scale panels in the bottom row show staining for muscle fibers only (ACTA2).
Briefly, satellite cells were isolated from muscle biopsies obtained from TD children during surgical procedures, sorted using FACS, plated in gelatin coated dishes, and grown into proliferation medium in 12-well plates.

A further series concerns the target Aurora C kinase (Homo sapiens, UniProt Q9UQB9). Particulars: cited from earlier work.
The test system of another series is C2C12 myoblasts. Particulars: mouse-derived C2C12 muscle cell lines; cited from earlier work.
The test system of another series is porcine satellite cells. The conditions noted are these: 10 μM for 48 hours (Fan et al.); cited from earlier work.

Aurora C kinase, sequence (Q9UQB9 whole entry): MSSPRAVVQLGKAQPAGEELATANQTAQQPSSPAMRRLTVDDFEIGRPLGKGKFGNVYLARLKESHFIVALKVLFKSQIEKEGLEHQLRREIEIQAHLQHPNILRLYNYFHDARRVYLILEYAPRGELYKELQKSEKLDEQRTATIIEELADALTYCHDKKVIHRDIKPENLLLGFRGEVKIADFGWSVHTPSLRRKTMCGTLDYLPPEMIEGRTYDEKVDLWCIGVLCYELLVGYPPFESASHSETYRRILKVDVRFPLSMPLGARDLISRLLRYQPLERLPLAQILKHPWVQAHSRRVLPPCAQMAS

As to `c1nc2nc(Nc3ccc(N4CCOCC4)cc3)nc(NC3CCCCC3)c2[nH]1` [Reversine, 2-(4-morpholinoanilino)-6-cyclohexylaminopurine], in series [1] (CP and TD myoblasts, FIG. 5 and FIG. 6, 5 μM), the “myoblast fusion and myotube formation” value is “shown to promote myoblast fusion and myotube formation”. The “cell death and polyploidy (nuclei)” value in series [1] (CP myoblasts, FIG. 5, 5 μM) was “lower in number and suffer from polyploidy”. In addition, the “morphological changes to the membranes of the cells (WGA staining)” value in series [1] (CP myoblasts, FIG. 5, 5 μM, 3 days) is listed as “causes morphological changes to the membranes of the cells”. Moreover, in series [1] (TD myoblasts, FIG. 6, 5 μM), the “morphological changes to ACTA2-negative cells and nuclei” value was “led to significant morphological changes to ACTA2-negative cells and nuclei in general”. In series [1] (myoblasts), the “cell death over time” value is on record as “over time also leads to cell death” and the de-differentiation of myoblasts entry is recorded as “causes myoblasts to de-differentiate”. Further, the IC50 on Aurora C kinase is 20 nM.
Consider `Nc1ncn([C@H]2C[C@H](O)[C@@H](CO)O2)c(=O)n1` [decitabine, 5-aza-2′-deoxycytidine], for which the “muscle-specific gene expression, myogenesis and myotube formation” value with C2C12 myoblasts is “promoted expression of muscle-specific genes, enhanced myogenesis and myotube formation”. Besides, in the series on porcine satellite cells, the cell viability result is listed as “no change in cell viability” and the myogenic response result is “positive myogenic response”.
